PubChem BioAssay (NCI)
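Following 48 hours of exposure in 96-well plates, responses at five concentrations were used to interpolate endpoints linearly. TGI is the concentration that stops growth completely.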

Assays:
Assay in all cases: NCI anticancer screen, dose series, 48 h
DLD-1 colon = tested on: DLD-1 colon
LXFL 529 NSCLC = tested on: LXFL 529 NSCLC
TK-10 renal = tested on: TK-10 renal
ACHN renal = tested on: ACHN renal
HOP-18 NSCLC = tested on: HOP-18 NSCLC
DMS 114 small cell lung = tested on: DMS 114 small cell lung
DMS 273 small cell lung = tested on: DMS 273 small cell lung
COLO 205 colon = tested on: COLO 205 colon
SNB-78 CNS = tested on: SNB-78 CNS
HOP-92 NSCLC = tested on: HOP-92 NSCLC
HT29 colon = tested on: HT29 colon
M19-MEL melanoma = tested on: M19-MEL melanoma
KM20L2 colon = tested on: KM20L2 colon
RXF-631 renal = tested on: RXF-631 renal

SMILES | TGI (DLD-1 colon) [µM] | TGI (LXFL 529 NSCLC) [µM] | TGI (TK-10 renal) [µM] | TGI (ACHN renal) [µM] | TGI (HOP-18 NSCLC) [µM] | TGI (DMS 114 small cell lung) [µM] | TGI (DMS 273 small cell lung) [µM] | TGI (COLO 205 colon) [µM] | TGI (SNB-78 CNS) [µM] | TGI (HOP-92 NSCLC) [µM] | TGI (HT29 colon) [µM] | TGI (M19-MEL melanoma) [µM] | TGI (KM20L2 colon) [µM] | TGI (RXF-631 renal) [µM]
CC1(O)CC2C(CC1SC1CC3C(CC1(C)O)C3(C)C)C2(C)C (stereo not drawn) | > 100 | > 100 | > 100 | > 100 | > 100 | > 100 | > 100 | > 100 | > 100 | > 100 | > 100 | 63.4 |  | 
CCOC(=O)C(C)NC(=O)NC12CC3CC(CC(F)(C3)C1)C2 (stereo not drawn) | > 100 | > 100 | > 100 | > 100 |  | > 100 | > 100 | > 100 | 83.3 | 56.2 | > 100 | > 100 | > 100 | 
COc1cc([C@@H]2c3cc4c(cc3[C@@H](NCc3ccccc3F)C3COC(=O)[C@@H]32)OCO4)cc(OC)c1O (stereo partly drawn) | > 100 | 88.2 | 81.4 | 4.28 | > 100 | 28.3 | 21.2 | 77.4 | > 100 | 54.3 | 25.5 | 23.4 | 8.65 | 19.8
Cc1cc(Cl)ccc1NC(=O)/C(=N\NC(C)(C)C)C(C#N)c1nc(-c2ccc([N+](=O)[O-])cc2)cs1 (stereo not drawn) | > 100 | > 100 | > 100 | > 100 | > 100 | > 100 | > 100 |  | > 100 | > 100 | > 100 | > 100 | > 100 | > 100
O=C1/C(=C/c2ccccc2Cl)COc2ccc(Br)cc21 | > 100 | > 100 | > 100 | > 100 | > 100 | > 100 | > 100 | > 100 | > 100 | > 100 | > 100 | > 100 | > 100 | 
COc1ccc(OC2(c3cc(OC)ccc3OC)OC(=O)c3ccccc32)cc1 (stereo not drawn) | > 100 | > 100 | > 100 | > 100 | > 100 | > 100 | > 100 | > 100 | > 100 | > 100 | > 100 | > 100 | > 100 | > 100
CC(=O)NC(CCCCNCc1ccccc1)C(=O)NCc1ccccc1 (stereo not drawn) | > 100 | > 100 | > 100 | > 100 |  | > 100 | > 100 | > 100 | > 100 | > 100 | > 100 | > 100 | > 100 | 
O=C1C(Cl)C(c2ccccc2Cl)N1n1cnc2ccccc2c1=O (stereo not drawn) | > 100 | > 100 | > 100 | > 100 |  | > 100 | > 100 | > 100 | > 100 |  | > 100 | > 100 | > 100 | 
CCOc1ccc(N(CC(=O)N2CC(=O)Nc3cc(C)c(C)cc32)C(C)=O)cc1 | > 100 | > 100 | > 100 | > 100 | > 100 |  | > 100 | > 100 | > 100 | > 100 | > 100 | > 100 | > 100 | 
N#C/C(c1nc2ccccc2[nH]1)=c1\s/c(=C/c2ccccc2)c(=O)n1-c1ccccc1 | > 100 | > 100 | > 100 | > 100 |  | > 100 | > 100 | > 100 |  | > 100 |  | > 100 | > 100 | 
